Assays:
Test in all cases: relative viability (nuclei count vs DMSO), 5 days (fraction); higher = more cells survive
Metformin + Tozasertib = compound: CN(C)C(=N)NC(=N)N [Metformin] + Cc1cc(Nc2cc(N3CCN(C)CC3)nc(Sc3ccc(NC(=O)C4CC4)cc3)n2)n[nH]1 [Tozasertib] (partner 0.1 µM)
Method in brief: (§1)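 A single step with final 0.05% Triton X-100, 1% formaldehyde and 1 ug/ml Hoechst fixed the cells and stained nuclei 5 days after treatment. Lung cancer cell lines in 1536-well plates had been treated by pin tool the day after seeding with one drug alone or a fixed anchor-drug dose plus five library-drug doses (not always all listed) in √10 steps, and nuclei were counted on 4× images. Relative viability is the ratio of nuclei in treated wells to nuclei in vehicle wells, taken as the median of duplicate plates.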

Metformin + Phenformin = compound: CN(C)C(=N)NC(=N)N [Metformin] + N=C(N)NC(=N)NCCc1ccccc1 [Phenformin] (partner 250 µM)
Method in brief: as §1

Apatinib + Bortezomib = compound: N#CC1(c2ccc(NC(=O)c3cccnc3NCc3ccncc3)cc2)CCCC1 [Apatinib] + CC(C)C[C@H](NC(=O)[C@H](Cc1ccccc1)NC(=O)c1cnccn1)B(O)O [Bortezomib] (partner 0.002 µM)
Method in brief: as §1

Apatinib + Lapatinib = compound: N#CC1(c2ccc(NC(=O)c3cccnc3NCc3ccncc3)cc2)CCCC1 [Apatinib] + CS(=O)(=O)CCNCc1ccc(-c2ccc3ncnc(Nc4ccc(OCc5cccc(F)c5)c(Cl)c4)c3c2)o1 [Lapatinib] (partner 2 µM)
Method in brief: as §1

| Cell Line | relative viability (Metformin + Tozasertib; first compound 10 µM) | relative viability (Metformin + Tozasertib; first compound 31.62 µM) | relative viability (Metformin + Tozasertib; first compound 100 µM) | relative viability (Metformin + Tozasertib; first compound 316.23 µM) | relative viability (Metformin + Tozasertib; first compound 1000 µM) | relative viability (Metformin + Phenformin; first compound 10 µM) | relative viability (Metformin + Phenformin; first compound 31.62 µM) | relative viability (Metformin + Phenformin; first compound 100 µM) | relative viability (Metformin + Phenformin; first compound 316.23 µM) | relative viability (Metformin + Phenformin; first compound 1000 µM) | relative viability (Apatinib + Bortezomib; first compound 0.08 µM) | relative viability (Apatinib + Bortezomib; first compound 0.253 µM) | relative viability (Apatinib + Bortezomib; first compound 0.8 µM) | relative viability (Apatinib + Bortezomib; first compound 2.53 µM) | relative viability (Apatinib + Bortezomib; first compound 8 µM) | relative viability (Apatinib + Lapatinib; first compound 0.08 µM) | relative viability (Apatinib + Lapatinib; first compound 0.253 µM) | relative viability (Apatinib + Lapatinib; first compound 0.8 µM) | relative viability (Apatinib + Lapatinib; first compound 2.53 µM) | relative viability (Apatinib + Lapatinib; first compound 8 µM) |
| --- | --- | --- | --- | --- | --- | --- | --- | --- | --- | --- | --- | --- | --- | --- | --- | --- | --- | --- | --- | --- |
| PC-14 | 0.618 | 0.714 | 0.673 | 0.674 | 0.814 | 0.72 | 0.808 | 0.77 | 0.659 | 0.697 | 0.984 | 1.01 | 0.79 | 0.776 | 0.834 | 0.384 | 0.29 | 0.283 | 0.277 | 0.23 |
| HCC-78 | 0.637 | 0.571 | 0.487 | 0.4 | 0.629 | 0.685 | 0.716 | 0.627 | 0.651 | 0.782 | 0.539 | 0.525 | 0.618 | 0.505 | 0.476 | 0.568 | 0.731 | 0.942 | 0.829 | 0.748 |
| NCI-H322M | 0.48 | 0.454 | 0.437 | 0.432 | 0.419 | 0.839 | 0.802 | 0.809 | 0.735 | 0.746 | 1.23 | 1.19 | 1.05 | 1.24 | 1.25 | 0.571 | 0.465 | 0.57 | 0.64 | 0.584 |
| NCI-H2023 | 0.32 | 0.413 | 0.479 | 0.301 | 0.324 | 0.396 | 0.376 | 0.408 | 0.393 | 0.354 | 1.02 | 1.09 | 1.02 | 0.858 | 0.856 | 0.751 | 0.945 | 0.911 | 0.74 | 0.737 |
| NCI-H1651 | 0.751 | 0.847 | 0.86 | 0.728 | 0.976 | 0.42 | 0.312 | 0.371 | 0.327 | 0.373 | 0.799 | 0.955 | 0.922 | 0.912 | 0.861 | 0.914 | 0.909 | 0.709 | 0.698 | 0.76 |
| HCC-15 |  | 0.489 | 0.395 | 0.412 | 0.521 |  | 0.495 | 0.464 | 0.426 | 0.491 | 1.09 | 1.03 | 0.972 | 0.88 | 0.992 | 0.928 | 0.859 | 0.808 | 0.742 | 0.827 |

From the supplement of paper PMC10307832
